Source: US20040024024A1, “Aromatic sulfone hydroxamates and their use as protease inhibitors” (priority 2001, published 2004)

Key:
Assay in all cases: In vitro MMP inhibition, IC50 determination (fluorogenic substrate I)
Assay type in all cases: biochemical
[1] = target: T1, Human recombinant MMP-14 (Homo sapiens, UniProt P50281)
T1 construct: The catalytic domain enzyme was expressed in E. coli inclusion bodies, solubilized in urea; made in house
Method: (§1) Several hydroxamates and salts thereof were analyzed in in vitro assays to determine their ability to inhibit the MMP cleavage of peptide substrates. Inhibition (Ki) and IC50 constants were calculated from the assayed hydroxamate-MMP interactions.
(§2) Human recombinant MMP-1, MMP-2, MMP-9, MMP-13, and MMP-14 were used in this assay. All enzymes were prepared in Assignee's laboratories following usual laboratory procedures. Protocols for the preparation and use of these enzymes are available in the scientific literature. See, e.g., Enzyme Nomenclature (Academic Press, San Diego, Calif., 1992) (and the citations therein). See also, Frije et al., J. Biol. Chem., 26(24), 16766-73 (1994).
The MMP-14 full length cDNA was provided by Dr. Gregory Goldberg of Washington University (St. Louis, Mo.). The catalytic domain enzyme was expressed in E. coli inclusion bodies, solubilized in urea, purified on a preparative […] reverse phase HPLC column, and then refolded in the presence of zinc acetate and purified for use.
(§3) All MMPs were activated using 4-aminophenylmercuric acetate (“APMA”, Sigma Chemical, St. Louis, Mo.) or trypsin. MMP-9 also was activated using human recombinant MMP-3 (purified in Assignee's laboratory following standard cloning and purification techniques).
(§4) Two fluorogenic, methoxycoumarin-containing polypeptide substrates were used in the MMP inhibition assays:
(§5) MCA-ProLeuGlyLeuDpaAlaArgNH2 (I)
(§6) Here, “Dpa” is 3-(2,4-dinitrophenyl)-L-2,3-diaminopropionyl group, and “MCA” is 7-methoxycoumarin-4-yl acetyl. Substrate (I) was purchased from Baychem (Redwood City, Calif.), and substrate II was prepared Assignee's laboratory. Substrate I was used in the IC50 determination assays, while substrate II was used in the Ki determination assays. In the absence of MMP inhibitory activity, either substrate is cleaved at the Gly-Leu peptide bond. This cleavage separates the highly fluorogenic peptide from the 2,4-dinitrophenyl quencher, thus resulting in increase of fluorescent intensity.
(§7) The stock solutions of the assayed hydroxamates (or salts thereof) were prepared in 1% dimethyl sulfoxide (DMSO). These stock solutions were diluted in Buffer A (100 mM Tris-HCl, 100 mM NaCl, 10 mM CaCl2, 0.05% polyoxyethylene 23 lauryl ether, pH 7.5) to obtain solutions with different hydroxamate concentrations, i.e., assay solutions with different concentrations of the assayed MMP inhibitory compound. The experiment controls contained the same amount of Buffer A/DMSO as the assayed sample, but contained no hydroxamate (or salt thereof).
(§8) The assays from which the IC50 determinations were made were performed as follows. The MMPs were activated with either trypsin or APMA (4-aminophenylmercuric acetate, Sigma Chemical, St. Louis, Mo.). The assayed hydroxamate samples were, incubated in Microfluorrm White Plates (Dynatech, Chantilly, VA) and analyzed on a Perkin Elmer L550 plate reader (Norwalk, Conn.). The excitation wavelength was 328 nm, and the emission wavelength—415 nm. All samples (assayed hydroxamates and controls) were incubated in separate plates at room temperature in the presence of 4 μM of MMP substrate (I). As stated in the previous paragraph, samples containing varying concentrations of the same assayed hydroxamate were prepared. Inhibition was measured as a reduction in fluorescent intensity as a function of MMP inhibitor concentration.

[2] = target: T2, Human recombinant MMP-9 (Homo sapiens, UniProt P14780)
T2 construct: made in house; host or cells: MMP-9-transfected HT1080 cells (spent media)
T2 sequence (P14780 107-707 limits assumed): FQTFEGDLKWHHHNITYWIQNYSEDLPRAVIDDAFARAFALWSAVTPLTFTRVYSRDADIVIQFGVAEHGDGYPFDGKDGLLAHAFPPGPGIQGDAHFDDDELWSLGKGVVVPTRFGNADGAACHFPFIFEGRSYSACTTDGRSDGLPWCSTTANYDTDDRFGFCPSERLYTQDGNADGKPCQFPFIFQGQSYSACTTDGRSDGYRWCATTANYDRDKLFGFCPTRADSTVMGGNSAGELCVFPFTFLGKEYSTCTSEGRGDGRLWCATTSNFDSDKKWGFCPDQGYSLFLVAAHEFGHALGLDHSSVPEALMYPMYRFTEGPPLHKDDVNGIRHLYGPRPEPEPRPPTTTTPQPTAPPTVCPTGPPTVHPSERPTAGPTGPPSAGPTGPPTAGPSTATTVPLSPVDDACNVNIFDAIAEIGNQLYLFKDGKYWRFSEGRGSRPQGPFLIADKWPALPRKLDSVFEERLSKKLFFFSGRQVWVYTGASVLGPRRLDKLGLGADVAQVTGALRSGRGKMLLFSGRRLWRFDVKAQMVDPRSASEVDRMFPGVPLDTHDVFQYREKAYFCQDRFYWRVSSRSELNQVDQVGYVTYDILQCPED
Method: as §1, §2
The MMP-9 proenzyme was purified by gelatin Sepharose chromatography from spent media of MMP-9-transfected HT1080 cells provided by Dr. Howard Welgus of Washington University (St. Louis, Mo.).
as §3, §4, §5, §6, §7, §8

[3] = target: T3, Human recombinant MMP-2 (Homo sapiens, UniProt P08253)
T3 construct: made in house; host or cells: MMP-2-transfected p2AHT2 cells
T3 sequence (P08253 110-660): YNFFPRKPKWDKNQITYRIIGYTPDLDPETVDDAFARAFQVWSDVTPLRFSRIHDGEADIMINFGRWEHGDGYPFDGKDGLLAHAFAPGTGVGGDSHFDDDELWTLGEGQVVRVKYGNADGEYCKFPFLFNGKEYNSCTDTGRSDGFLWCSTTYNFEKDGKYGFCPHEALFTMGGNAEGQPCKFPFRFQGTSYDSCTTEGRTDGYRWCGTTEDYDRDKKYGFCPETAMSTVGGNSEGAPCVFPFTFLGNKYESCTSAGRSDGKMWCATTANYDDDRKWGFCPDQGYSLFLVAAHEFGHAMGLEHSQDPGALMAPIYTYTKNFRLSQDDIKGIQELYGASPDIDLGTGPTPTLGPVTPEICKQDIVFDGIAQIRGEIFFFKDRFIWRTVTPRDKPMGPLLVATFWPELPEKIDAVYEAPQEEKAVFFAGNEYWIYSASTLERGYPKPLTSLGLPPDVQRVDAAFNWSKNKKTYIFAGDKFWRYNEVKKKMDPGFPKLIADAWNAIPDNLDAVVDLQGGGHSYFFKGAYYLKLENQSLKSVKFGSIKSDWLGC
Method in brief: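 APMA- or trypsin-activated recombinant MMP-2 was incubated at room temperature with serial inhibitor dilutions in Tris buffer pH 7.5 (100 mM NaCl, 10 mM CaCl2, 0.05% Brij), with DMSO from 1% stocks, and 4 μM substrate I. Cleavage was read by fluorescence at 328/415 nm; IC50 was taken from the loss of fluorescence versus inhibitor concentration.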

[4] = target: T4, Human recombinant MMP-1 (Homo sapiens, UniProt P03956)
T4 construct: made in house; host or cells: MMP-1-transfected HT-1080 cells (spent media)
T4 sequence (P03956 100-469): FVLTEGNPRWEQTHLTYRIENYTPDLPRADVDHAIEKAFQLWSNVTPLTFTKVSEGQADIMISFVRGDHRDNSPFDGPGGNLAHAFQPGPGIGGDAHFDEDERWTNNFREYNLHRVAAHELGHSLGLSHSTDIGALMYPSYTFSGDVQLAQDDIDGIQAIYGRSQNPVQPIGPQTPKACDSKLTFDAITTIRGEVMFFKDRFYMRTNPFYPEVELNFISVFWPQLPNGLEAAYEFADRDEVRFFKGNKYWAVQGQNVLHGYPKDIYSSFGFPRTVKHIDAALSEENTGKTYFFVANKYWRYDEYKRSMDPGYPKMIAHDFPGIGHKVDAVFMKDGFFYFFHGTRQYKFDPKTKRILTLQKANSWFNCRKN
Method: as §1, §2
The MMP-1 proenzyme was purified from the spent media of MMP-1-transfected HT-1080 cells provided by Dr. Harold Welgus of Washington University (St. Louis, Mo.). The protein was purified on a zinc chelating column.
as §3, §4, §5, §6, §7, §8

[5] = target: T5, Human recombinant MMP-13 (Homo sapiens, UniProt P45452)
T5 construct: made in house; host or cells: baculovirus / insect cells
Method in brief: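 Fluorescence at 415 nm (excitation 328 nm) reports Gly-Leu cleavage of 4 μM quenched methoxycoumarin peptide substrate I. Human recombinant MMP-13, activated by trypsin or APMA, was incubated at room temperature with varied inhibitor concentrations in pH 7.5 Tris/NaCl/CaCl2 buffer; IC50 derived from reduced fluorescence.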

[6] = value outside parentheses (Ki in parenthesis)
[7] = substrate (I) 4 μM, room temperature, values not in parenthesis

| IC50 ([1]; value outside parenthesis) | IC50 ([2]; value outside parenthesis) | IC50 ([3]; value outside parenthesis) | IC50 ([4]; value outside parenthesis) | IC50 ([5]; value outside parenthesis) | Compound | also measured |
| --- | --- | --- | --- | --- | --- | --- |
| > 10000 nM | 107 nM | 18.5 nM | > 10000 nM | – | CN(C)c1ccc(C(=O)CCCCOc2ccc(S(=O)(=O)C3(C(=O)NO)CCN(C4CC4)CC3)cc2)cc1 [Example 267] | – |
| > 10000 nM | 7690 nM | 1370 nM | > 10000 nM | 9.7 nM | CC(C)C[C@@H]1C(=O)N(CCCOc2ccc(S(=O)(=O)C3(C(=O)NO)CCOCC3)cc2)C(=O)N1c1ccccc1 [Example 105] | – |
| – | – | – | – | – | Cc1ccc2c(c1)CCCN2CCCCCOc1ccc(S(=O)(=O)C2(C(=O)NO)CCOCC2)cc1 [Example 415] | IC50 [5, 6]: 15 nM; IC50 [1, 6]: > 10000 nM; IC50 [2, 6]: 1780 nM; IC50 [3, 6]: 51 nM; IC50 [4, 6]: > 10000 nM |
| – | – | – | – | – | Cc1ccc(C(=O)NCCCOc2ccc(S(=O)(=O)C3(C(=O)NO)CCOCC3)cc2)c(C)c1 [Example 373] | IC50 [5, 6]: 7 nM; IC50 [1, 6]: > 10000 nM; IC50 [2, 6]: 3940 nM; IC50 [3, 6]: 940 nM; IC50 [4, 6]: > 10000 nM |
| > 10000 nM | 2200 nM | 54.8 nM | > 10000 nM | 2.2 nM | O=C(NO)C1(S(=O)(=O)c2ccc(OCCCc3nc(-c4cccc(Cl)c4Cl)no3)cc2)CCOCC1 [Example 213] | – |
| – | – | – | – | – | COc1ccc(OCCCOc2ccc(S(=O)(=O)C3(C(=O)NO)CCOCC3)cc2)cc1 [Example 447] | IC50 [5, 6]: 2 nM; IC50 [1, 6]: 1360 nM; IC50 [2, 6]: 12.2 nM; IC50 [3, 6]: 8.9 nM; IC50 [4, 6]: > 10000 nM |
| 7020 nM | 196 nM | 17.4 nM | 6670 nM | 2.8 nM | CC(CCOc1ccc(S(=O)(=O)C2(C(=O)NO)CCOCC2)cc1)C(=O)c1cccs1 (stereo not drawn) [Example 276] | – |
| – | – | – | – | – | COc1ccc(/C(CCCCOc2ccc(S(=O)(=O)C3(C(=O)NO)CCOCC3)cc2)=N/O)c(OC)c1 [Example 25] | IC50 [5, 7]: 1.8 nM; IC50 [1, 7]: > 10000 nM; IC50 [2, 7]: 8500 nM; IC50 [3, 7]: 247 nM; IC50 [4, 7]: > 10000 nM |
| – | – | – | – | – | COc1ccc(C(=O)CCCOc2ccc(S(=O)(=O)C3(C(=O)NO)CCOCC3)cc2)cc1 [Example 491] | IC50 ([5]; value outside parentheses): 0.8 nM; IC50 ([1]; value outside parentheses): 981 nM; IC50 ([2]; value outside parentheses): 94.2 nM; IC50 ([3]; value outside parentheses): 6.8 nM; IC50 ([4]; value outside parentheses): 7310 nM |
| > 10000 nM | 2750 nM | 898 nM | > 10000 nM | 1.8 nM | O=C(NO)C1(S(=O)(=O)c2ccc(OCCCc3cccc(-c4ccccc4)c3)cc2)CCOCC1 [Example 269] | – |
| > 10000 nM | 906 nM | 172 nM | > 10000 nM | 1.4 nM | CC(C)Oc1ccc(-c2nnc(CCCOc3ccc(S(=O)(=O)C4(C(=O)NO)CCOCC4)cc3)o2)cc1 [Example 209] | – |
